Test results as given in patent EP0338435A1, “3,4-Dihydroxypyrrolidin-2-one derivatives, process for their preparation, agents containing them and their use as well as the intermediates resulting from the preparation” (HOECHST AKTIENGESELLSCHAFT, priority 1988, dated 1989).
Where two headings read alike, the source gives them in different places.

What was measured:
Scopolamin-Amnesie = test: inhibitory (passive) avoidance test (step-through test), reversal of scopolamine-induced amnesia; type: in vivo, Mäusen; details: Mus musculus, po, read-out: Inhibitory avoidance MED mg/kg p.o. Scopolamin-Amnesie
Excerpt: (§1) Die Verbindungen der Formel I besitzen wertvolle pharmakologische Eigenschaften, insbesondere nootrope. Die nootrope Wirkung der erfindungsgemäßen Verbindungen wurde an Mäusen, die ein Körpergewicht von 20-25 g besaßen, im inhibitory (passive) avoidance test (step-through-test) geprüft. Eine modifizierte Form der von J. Kopp. Z. Bodanecky und M.E. Jarvik beschriebenen Test-Methode wurde von J. Bures, 0. Buresova und J. Huston im "Techniques and Basic Experiments for the Study of Brain and Benavior", Elsevier Scientific Publishers, Amsterdam 1983, beschrieben.
(§2) Entsprechend diesen Literaturangaben wird eine Substanz dann als nootrop wirksam bezeichnet, wenn sie bei den Versuchstieren die mittels eines electroconvulsiven Schocks erzeugte Amnesie (ECS-Amnesie) bzw. mittels Scopolamin-Injektion erzeugte Amnesie aufzuheben vermag.
(§3) Die Versuche wurden nach modifizierten Test-Methoden mit den erfindungsgemäßen Verbindungen durchgeführt. Als Vergleichsverbindung diente das bekannte Nootropikum 2-0xo-1-pyrrolidinylessigsäurea- mid (Piracetam). Die deutliche Überlegenheit der erfindungsgemäßen Verbindungen über die Vergleichssubstanz zeigte sich darin, daß der amnestische Effekt bereits mit einer MED (minimal effective dose) von 1-10 mg/kg p.o. aufzuheben ist. Die Vergleichssubstanz hat eine MED von ca. 500-1000 mg/kg p.o.

ECS-Amnesie = test: inhibitory (passive) avoidance test (step-through test), reversal of ECS-induced amnesia; type: in vivo, Mäusen; details: po
Excerpt: as §1, §2, §3

[1] = mice 20-25 g, amnesia induced by scopolamine injection
[2] = Mus musculus, mice 20-25 g, amnesia induced by electroconvulsive shock, read-out: Inhibitory avoidance MED mg/kg p.o. ECS-Amnesie
[3] = Mus musculus, read-out: Inhibitory avoidance MED mg/kg p.o. ECS-Amnesie

`COc1cccc(CN2C[C@@H](O)[C@@H](O)C2=O)c1` [Beispiel 34] was tested, and the minimal effective dose (Scopolamin-Amnesie; [1]) was 1 mg/kg and the minimal effective dose (ECS-Amnesie; [2]) was 3 mg/kg.
For `Cc1ccc(CN2C[C@@H](O)[C@@H](O)C2=O)cc1` [Beispiel 33], the minimal effective dose (ECS-Amnesie; [2]) was 3 mg/kg.
For `CC(C)N(CCNC(=O)CN1C[C@@H](O)[C@@H](O)C1=O)C(C)C` [Beispiel 28, N-[2-(Diisopropylamino)ethyl]-2-[(3R,4R)-3,4-dihydroxypyrrolidin-2-on-1-yl]acetamid], the minimal effective dose (ECS-Amnesie; [3]) was 10 mg/kg.
With `O=C1[C@H](O)[C@H](O)CN1Cc1ccccc1` [Beispiel 29, 1-Benzyl-(3R,4R)-3.4-dihydroxy-pyrrolidin2-on] the minimal effective dose (Scopolamin-Amnesie; [1]) was 1 mg/kg and the minimal effective dose (ECS-Amnesie; [2]) was 3 mg/kg.
Work on `Nc1ccc(CN2C[C@@H](O)[C@@H](O)C2=O)cc1` [Beispiel 36, 1-(4-Aminobenzyl)-(3R,4R)-3,4-dihydroxypyrrolidin-2-on] yielded a minimal effective dose (ECS-Amnesie; [2]) of 3 mg/kg.
`NC(=O)CN1CCCC1=O` [Piracetam, 2-0xo-1-pyrrolidinylessigsäurea-mid, reference compound] showed a minimal effective dose (Scopolamin-Amnesie) of 500 mg/kg, a minimal effective dose (ECS-Amnesie; [3]) of 1000 mg/kg and a minimal effective dose (ECS-Amnesie; read-out: MED (minimal effective dose)) of 500 to 1000 mg/kg.
